# Key:
# DNA polymerase lambda = biological target: T1, DNA polymerase lambda (Mus musculus, UniProt Q9QXE2); assay: Inhibition of mouse DNA polymerase lambda assessed as inhibition of incorporation of dTTP into poly(dA)/oligo(dT)18 after 60 mins
# T1 sequence (Q9QXE2 whole entry): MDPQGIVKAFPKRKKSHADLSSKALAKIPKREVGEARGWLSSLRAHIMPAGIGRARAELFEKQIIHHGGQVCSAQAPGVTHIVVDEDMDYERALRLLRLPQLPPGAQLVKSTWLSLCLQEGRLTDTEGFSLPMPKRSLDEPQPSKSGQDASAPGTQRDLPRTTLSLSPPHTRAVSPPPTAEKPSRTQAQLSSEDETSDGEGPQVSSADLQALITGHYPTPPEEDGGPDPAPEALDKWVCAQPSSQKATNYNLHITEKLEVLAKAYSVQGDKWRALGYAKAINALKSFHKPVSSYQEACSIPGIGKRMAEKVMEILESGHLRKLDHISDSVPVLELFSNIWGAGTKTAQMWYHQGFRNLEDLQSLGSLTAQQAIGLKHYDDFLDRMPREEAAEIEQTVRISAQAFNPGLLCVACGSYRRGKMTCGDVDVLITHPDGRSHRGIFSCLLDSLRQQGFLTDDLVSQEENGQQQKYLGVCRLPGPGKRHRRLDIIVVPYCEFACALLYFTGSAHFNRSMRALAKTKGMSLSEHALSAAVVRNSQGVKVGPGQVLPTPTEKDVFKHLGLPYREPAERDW
# T7 RNA polymerase = T7 RNA polymerase (Enterobacteria phage T7, UniProt P00573); assay: Inhibition of T7 RNA polymerase assessed as inhibition of incorporation of dTTP into poly(dA)/oligo(dT)18 after 60 mins; design: species or system Escherichia phage T7
# DNA polymerase beta [1] = biological target: T2, DNA polymerase beta (Rattus norvegicus, UniProt P06766); assay: Competitive inhibition of recombinant rat DNA polymerase beta using poly(dA)/oligo(dT)18 as substrate by Lineweaver-Burk plot analysis
# [2] = biological target: DNA polymerase beta (Rattus norvegicus) (UniProt P06766); assay: Inhibition of recombinant rat DNA polymerase beta expressed in Escherichia coli JMpbeta5 assessed as inhibition of incorporation of dTTP into poly(dA)/oligo(dT)18 after 60 mins
# DNA polymerase beta [3] = biological target: T2, DNA polymerase beta; assay: Noncompetitive inhibition of recombinant rat DNA polymerase beta using dTTP as substrate by Lineweaver-Burk plot analysis
# Sequence of T7 RNA polymerase (P00573 whole entry): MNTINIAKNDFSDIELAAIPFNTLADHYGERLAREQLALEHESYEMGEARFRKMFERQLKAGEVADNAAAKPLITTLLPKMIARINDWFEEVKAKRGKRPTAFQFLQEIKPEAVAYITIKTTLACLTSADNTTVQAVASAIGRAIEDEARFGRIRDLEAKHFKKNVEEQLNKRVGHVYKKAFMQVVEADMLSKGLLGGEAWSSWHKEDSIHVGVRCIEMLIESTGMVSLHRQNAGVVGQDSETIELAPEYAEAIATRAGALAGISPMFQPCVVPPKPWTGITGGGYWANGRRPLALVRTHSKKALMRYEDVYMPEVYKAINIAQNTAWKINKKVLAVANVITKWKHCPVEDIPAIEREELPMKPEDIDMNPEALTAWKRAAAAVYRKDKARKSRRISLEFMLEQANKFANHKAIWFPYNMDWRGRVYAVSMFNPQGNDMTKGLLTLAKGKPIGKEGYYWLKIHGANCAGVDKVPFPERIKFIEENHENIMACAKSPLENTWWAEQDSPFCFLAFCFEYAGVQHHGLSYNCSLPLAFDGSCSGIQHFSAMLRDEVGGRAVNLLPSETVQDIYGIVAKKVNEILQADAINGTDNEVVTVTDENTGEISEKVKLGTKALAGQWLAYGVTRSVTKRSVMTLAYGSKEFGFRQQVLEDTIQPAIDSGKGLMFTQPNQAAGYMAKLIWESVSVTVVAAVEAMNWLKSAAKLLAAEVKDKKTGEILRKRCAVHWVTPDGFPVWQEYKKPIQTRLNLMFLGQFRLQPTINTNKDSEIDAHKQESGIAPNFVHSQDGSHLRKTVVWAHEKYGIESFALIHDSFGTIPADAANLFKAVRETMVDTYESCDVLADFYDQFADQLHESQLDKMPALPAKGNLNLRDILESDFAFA
Structure (SMILES),IC50 (DNA polymerase lambda) [µM],IC50 (T7 RNA polymerase) [µM],Ki (DNA polymerase beta [1]) [µM],inhibition [2],Ki (DNA polymerase beta [3]) [µM]
CC(/C=C/CCC(=O)N1CCCC1=O)=C\C1CCCCO1 (stereo unspecified),> 200,> 200,,,
CCCC[C@@H](O)/C=C(C)/C=C/C=C/C(=O)N1CCCC1=O [PECILOCIN],> 200,> 200,,,
CCCC[C@@H](O)/C=C(C)/C=C/C=C\C(=O)N1CCCC1=O,> 200,> 200,5.5,Dose-dependent effect,11.6
CCCCC(=O)/C=C(C)/C=C/CCC(=O)N1CCCC1=O,> 200,> 200,,,
